These compounds were tested against T1, HEK-Blue-hTLR7 cells (Homo sapiens, UniProt Q9NYK1) (assay: HEK-Blue-hTLR7 cell inhibition assay). Conditions: R848 0.8 µM, 16 h, OD 620 nm, read-out: TLR7 IC50.
T1 construct: expressed in transfected cells; host or cells: HEK-Blue-hTLR7 cells (HEK293-derived reporter line)
T1 sequence (Q9NYK1 27-1049): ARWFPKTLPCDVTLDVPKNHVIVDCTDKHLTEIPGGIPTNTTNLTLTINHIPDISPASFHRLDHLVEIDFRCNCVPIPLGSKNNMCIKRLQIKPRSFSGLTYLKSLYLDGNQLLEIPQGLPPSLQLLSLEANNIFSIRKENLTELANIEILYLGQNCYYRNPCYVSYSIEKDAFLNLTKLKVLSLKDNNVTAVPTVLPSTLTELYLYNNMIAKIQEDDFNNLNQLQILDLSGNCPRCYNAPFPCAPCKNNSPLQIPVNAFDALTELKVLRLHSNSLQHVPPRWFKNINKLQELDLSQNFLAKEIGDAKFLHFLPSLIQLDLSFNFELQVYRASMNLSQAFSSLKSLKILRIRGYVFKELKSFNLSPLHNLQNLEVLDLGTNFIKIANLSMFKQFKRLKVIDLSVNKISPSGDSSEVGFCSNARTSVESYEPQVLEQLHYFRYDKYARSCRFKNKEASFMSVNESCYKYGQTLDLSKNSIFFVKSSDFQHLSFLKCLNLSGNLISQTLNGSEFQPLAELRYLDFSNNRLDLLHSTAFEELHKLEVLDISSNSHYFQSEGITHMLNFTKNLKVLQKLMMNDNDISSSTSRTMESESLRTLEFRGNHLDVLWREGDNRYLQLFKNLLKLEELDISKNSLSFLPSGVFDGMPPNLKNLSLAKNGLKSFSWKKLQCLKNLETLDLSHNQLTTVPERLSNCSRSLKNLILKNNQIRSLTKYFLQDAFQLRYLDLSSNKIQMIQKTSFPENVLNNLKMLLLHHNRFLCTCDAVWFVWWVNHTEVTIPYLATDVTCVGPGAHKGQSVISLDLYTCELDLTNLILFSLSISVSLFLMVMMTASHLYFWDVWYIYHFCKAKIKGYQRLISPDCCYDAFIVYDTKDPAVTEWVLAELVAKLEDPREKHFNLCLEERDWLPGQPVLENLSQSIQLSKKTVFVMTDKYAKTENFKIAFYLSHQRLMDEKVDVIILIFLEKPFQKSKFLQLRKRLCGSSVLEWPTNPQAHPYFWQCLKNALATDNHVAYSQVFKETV
Type: cell-based
In short: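 Cells were pre-incubated 4 h, then co-treated 16 h at 37 °C with compound (10 doses, 0.5–10000 nM final) plus R848 (0.8 µM for TLR7, 3 µM for TLR8) or ODN2006 (1 µM, TLR9). Reporter OD620 gave inhibition relative to DMSO blank and agonist-only controls; IC50 came from curve fitting.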

| SMILES | IC50 [nM] |
| --- | --- |
| CN1[C@@H]2CC[C@H]1C[C@H](c1nnc([C@]34CN(c5ccc(C(F)(F)F)c6ncccc56)C[C@@]3(C(F)(F)F)C4)o1)C2 [Compound 79, 2-((1R,3S,5S)-8-methyl-8-azabicyclo[3.2.1]octan-3-yl)-5-((1S,5R)-5-(trifluoromethyl)-3-(8-(trifluoromethyl)quinolin-5-yl)-3-azabicyclo[3.1.0]hexan-1-yl)-1,3,4-oxadiazole] | < 100 |
| CN1CCC(c2nnc([C@]34CN(c5ccc(C#N)n6ncc(Br)c56)C[C@@]3(C(F)(F)F)C4)o2)CC1 [Compound 83, 3-bromo-4-((1S,5R)-1-(5-(1-methylpiperidin-4-yl)-1,3,4-oxadiazol-2-yl)-5-(trifluoromethyl)-3-azabicyclo[3.1.0]hexan-3-yl)pyrazolo[1,5-a]pyridine-7-carbonitrile] | < 1000 |
| CN1CCC(c2nnc([C@]34CN(c5ccc(C#N)n6ncc(Cl)c56)C[C@@]3(C(F)(F)F)C4)o2)CC1 [Compound 84, 3-chloro-4-((1S,5R)-1-(5-(1-methylpiperidin-4-yl)-1,3,4-oxadiazol-2-yl)-5-(trifluoromethyl)-3-azabicyclo[3.1.0]hexan-3-yl)pyrazolo[1,5-a]pyridine-7-carbonitrile] | < 100 |
| CN1CCC(c2nnc([C@]34CN(c5c(Br)cc(C#N)n6ncc(Br)c56)C[C@@]3(C(F)(F)F)C4)o2)CC1 [Compound 85, 3,5-dibromo-4-((1S,5R)-1-(5-(1-methylpiperidin-4-yl)-1,3,4-oxadiazol-2-yl)-5-(trifluoromethyl)-3-azabicyclo[3.1.0]hexan-3-yl)pyrazolo[1,5-a]pyridine-7-carbonitrile] | > 1000 |
| CN1CCC(c2nnc([C@]34CN(c5c(Br)cc(C#N)n6nccc56)C[C@@]3(C(F)(F)F)C4)o2)CC1 [Compound 86, 5-bromo-4-((1S,5R)-1-(5-(1-methylpiperidin-4-yl)-1,3,4-oxadiazol-2-yl)-5-(trifluoromethyl)-3-azabicyclo[3.1.0]hexan-3-yl)pyrazolo[1,5-a]pyridine-7-carbonitrile] | < 1000 |
| CN1CCC(c2nnc([C@]34CN(c5ccc(C(F)(F)F)n6nccc56)C[C@@]3(C(F)(F)F)C4)o2)CC1 [Compound 87, 2-(1-methylpiperidin-4-yl)-5-((1S,5R)-5-(trifluoromethyl)-3-(7-(trifluoromethyl)pyrazolo[1,5-a]pyridin-4-yl)-3-azabicyclo[3.1.0]hexan-1-yl)-1,3,4-oxadiazole] | < 100 |
| CN1CCC(F)(c2nnc([C@]34CN(c5ccc(C#N)n6nccc56)C[C@@]3(C(F)(F)F)C4)o2)CC1 [Compound 90, 4-((1S,5R)-1-(5-(4-fluoro-1-methylpiperidin-4-yl)-1,3,4-oxadiazol-2-yl)-5-(trifluoromethyl)-3-azabicyclo[3.1.0]hexan-3-yl)pyrazolo[1,5-a]pyridine-7-carbonitrile] | < 100 |
| CN1CCC(c2nnc([C@]34CN(c5ccc(C#N)c6ncnn56)C[C@@]3(C(F)(F)F)C4)o2)CC1 [Compound 91, 5-((1S,5R)-1-(5-(1-methylpiperidin-4-yl)-1,3,4-oxadiazol-2-yl)-5-(trifluoromethyl)-3-azabicyclo[3.1.0]hexan-3-yl)-[1,2,4]triazolo[1,5-a]pyridine-8-carbonitrile] | < 100 |
| CN1CCC(Oc2nnc([C@]34CN(c5ccc(C(F)(F)F)c6ncccc56)C[C@@]3(C(F)(F)F)C4)o2)CC1 [Compound 92, 2-((1-methylpiperidin-4-yl)oxy)-5-((1S,5R)-5-(trifluoromethyl)-3-(8-(trifluoromethyl)quinolin-5-yl)-3-azabicyclo[3.1.0]hexan-1-yl)-1,3,4-oxadiazole] | < 100 |
| CN1CCC(Oc2nnc([C@]34CN(c5ccc(OC(F)(F)F)c6ncccc56)C[C@@]3(C(F)(F)F)C4)o2)CC1 [Compound 93, 2-((1-methylpiperidin-4-yl)oxy)-5-((1S,5R)-5-(trifluoromethyl)-3-(8-(trifluoromethoxy)quinolin-5-yl)-3-azabicyclo[3.1.0]hexan-1-yl)-1,3,4-oxadiazole] | < 1000 |
| CN1CCC(O)(c2nnc([C@]34CN(c5ccc(C(F)(F)F)c6ncccc56)C[C@@]3(C(F)(F)F)C4)o2)CC1 [Compound 94, 1-methyl-4-(5-((1S,5R)-5-(trifluoromethyl)-3-(8-(trifluoromethyl)quinolin-5-yl)-3-azabicyclo[3.1.0]hexan-1-yl)-1,3,4-oxadiazol-2-yl)piperidin-4-ol] | < 100 |
| FC(F)(F)Oc1ccc(N2C[C@]3(c4nnc(C5(F)CCNCC5)o4)C[C@]3(C(F)(F)F)C2)c2cccnc12 [Compound 96, 2-(4-fluoropiperidin-4-yl)-5-((1S,5R)-3-(8-(trifluoromethoxy)quinolin-5-yl)-5-(trifluoromethyl)-3-azabicyclo[3.1.0]hexan-1-yl)-1,3,4-oxadiazole] | < 100 |

The remaining lines, values ahead:

| IC50 [nM] | SMILES |
| --- | --- |
| < 100 | FC(F)(F)c1ccc(N2C[C@]3(c4nnc(C5CCNCC5)o4)C[C@]3(C(F)(F)F)C2)c2cccnc12 [Compound 75, 2-(piperidin-4-yl)-5-((1S,5R)-5-(trifluoromethyl)-3-(8-(trifluoromethyl)quinolin-5-yl)-3-azabicyclo[3.1.0]hexan-1-yl)-1,3,4-oxadiazole] |
| < 100 | FC(F)(F)c1ccc(N2C[C@]3(c4nnc(C5CCN(CC6CC6)CC5)o4)C[C@]3(C(F)(F)F)C2)c2cccnc12 [Compound 76, 2-(1-(cyclopropylmethyl)piperidin-4-yl)-5-((1S,5R)-5-(trifluoromethyl)-3-(8-(trifluoromethyl)quinolin-5-yl)-3-azabicyclo[3.1.0]hexan-1-yl)-1,3,4-oxadiazole] |
| < 100 | NC(=O)CN1CCC(c2nnc([C@]34CN(c5ccc(C(F)(F)F)c6ncccc56)C[C@@]3(C(F)(F)F)C4)o2)CC1 [Compound 77, 2-(4-(5-((1S,5R)-5-(trifluoromethyl)-3-(8-(trifluoromethyl)quinolin-5-yl)-3-azabicyclo[3.1.0]hexan-1-yl)-1,3,4-oxadiazol-2-yl)piperidin-1-yl)acetamide] |
| < 100 | N#Cc1ccc(N2C[C@]3(c4nnc(C5CCNCC5)o4)C[C@]3(C(F)(F)F)C2)c2c(F)cnn12 [Compound 80, 3-fluoro-4-((1S,5R)-1-(5-(piperidin-4-yl)-1,3,4-oxadiazol-2-yl)-5-(trifluoromethyl)-3-azabicyclo[3.1.0]hexan-3-yl)pyrazolo[1,5-a]pyridine-7-carbonitrile] |
| < 100 | NC12CCC(c3nnc([C@]45CN(c6ccc(C(F)(F)F)c7ncccc67)C[C@@]4(C(F)(F)F)C5)o3)(CC1)CC2 [Compound 81, 4-(5-((1S,5R)-5-(trifluoromethyl)-3-(8-(trifluoromethyl)quinolin-5-yl)-3-azabicyclo[3.1.0]hexan-1-yl)-1,3,4-oxadiazol-2-yl)bicyclo[2.2.2]octan-1-amine] |
